{
  "source": "patent US20250281498A1",
  "about": "“FUSED AMINO PYRIMIDINE COMPOUNDS FOR TREATMENT OF SYNUCLEINOPATHIES AND TDP-43 PROTEINOPATHIES” (Ovid Therapeutics Inc., priority 2024, published 2025)",
  "biological_target": "T1, KCC2 (Homo sapiens, UniProt Q9H2X9)",
  "T1 construct": "expressed in transfected cells; host or cells: HEK-293 (ATCC CRL-1573)",
  "T1 sequence (Q9H2X9 1-1116 isoform Q9H2X9-2)": "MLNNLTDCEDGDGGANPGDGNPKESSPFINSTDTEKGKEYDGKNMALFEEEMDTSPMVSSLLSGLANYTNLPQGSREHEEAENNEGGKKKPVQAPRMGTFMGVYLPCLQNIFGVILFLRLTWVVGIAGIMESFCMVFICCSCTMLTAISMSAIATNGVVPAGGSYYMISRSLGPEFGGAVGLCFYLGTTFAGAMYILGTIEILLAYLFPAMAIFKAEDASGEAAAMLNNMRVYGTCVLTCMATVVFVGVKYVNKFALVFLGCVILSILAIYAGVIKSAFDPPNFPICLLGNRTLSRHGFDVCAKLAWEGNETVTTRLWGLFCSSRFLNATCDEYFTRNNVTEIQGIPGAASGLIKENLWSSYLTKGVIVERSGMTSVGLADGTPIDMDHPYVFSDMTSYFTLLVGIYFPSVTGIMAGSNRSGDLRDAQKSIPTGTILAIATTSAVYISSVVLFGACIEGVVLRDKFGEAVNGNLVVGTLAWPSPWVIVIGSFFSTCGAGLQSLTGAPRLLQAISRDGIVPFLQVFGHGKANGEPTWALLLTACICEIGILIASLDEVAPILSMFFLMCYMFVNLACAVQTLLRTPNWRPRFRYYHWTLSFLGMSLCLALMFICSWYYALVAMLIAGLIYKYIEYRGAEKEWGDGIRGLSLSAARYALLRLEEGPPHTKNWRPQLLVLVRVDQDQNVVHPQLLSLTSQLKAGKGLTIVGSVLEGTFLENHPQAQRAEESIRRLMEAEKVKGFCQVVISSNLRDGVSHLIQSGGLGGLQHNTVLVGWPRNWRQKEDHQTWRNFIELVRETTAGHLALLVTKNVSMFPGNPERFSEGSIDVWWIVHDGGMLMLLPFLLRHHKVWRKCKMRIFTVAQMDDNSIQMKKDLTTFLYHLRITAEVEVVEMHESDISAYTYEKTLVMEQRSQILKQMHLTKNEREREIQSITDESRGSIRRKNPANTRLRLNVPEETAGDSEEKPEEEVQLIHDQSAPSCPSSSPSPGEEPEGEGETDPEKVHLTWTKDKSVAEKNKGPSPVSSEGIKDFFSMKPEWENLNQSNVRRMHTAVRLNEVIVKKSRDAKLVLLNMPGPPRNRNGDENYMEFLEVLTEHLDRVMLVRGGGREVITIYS",
  "assay": "cellular thermal shift assay (CETSA) in HEK-293 cells expressing KCC2",
  "assay_type": "binding",
  "protocol": "Cell Culture and biotinylation. HEK-293 cells were purchased from ATCC (CRL-1573) and transfected with human KCC2 and GFP expression plasmids using Lipofectamine 2000. Cells were utilized for experimentation 48-72 h following transfection. Cells were biotinylated at 4° C. using NHS-Biotin. Following lysis and purification on immobilized avidin beads, cell surface and total fractions were subject to immunoblotting as outlined previously (Conway et al., 2017, supra).\nDetermining if compounds in SSA directly interact with KCC2. This was tested using a cellular thermal shift assay (CETSA), which measures the ability of a drug to modify the thermal stability of its target in whole cells (Kawatkar et al., ACS Chem. Biol. 14, 1913-1920 (2019); Martinez et al., Sci Rep 8, 9472 (2018)).\n2×10^6 transfected HEK-293 cells were incubated with 30 μM drug or vehicle for 90 min at 37° C. and then heated from 37-58° C. for 5 min. Cells were rapidly chilled to 25° C. and NP40 was added to a final concentration […] to snap freezing in liquid nitrogen. […]\nAliquots of HEK-293 cells expressing KCC2 were exposed to 30 μM SSA, heated from 37-55° C. The remaining level of soluble native KCC2 at each temperature was measured by immunoblotting and normalized to the level seen at 37° C. which was given a value of 1. […]",
  "data": [
    {"molecule": "C[C@@H]1CN(c2nc3c(c(Nc4ccc(C5CCCCC5)cc4)n2)COC3)CCO1", "note": "[Compound A, (R)—N-(4-cyclohexylphenyl)-2-(2-methylmorpholino)-5,7-dihydrofuro[3,4-d]pyrimidin-4-amine]", "values": [
      {"measurement": "direct binding to KCC2 as measured using CETSA", "value": "capable of directly binding to KCC2"}
    ]}
  ]
}
